Reference: patent US10973777B2, “Methods for treatment of interstitial cystitis” (Panag Pharma Inc., priority 2017, dated 2021)
Entries after “also recorded” stand apart in the source; their conditions may differ.

What was measured:
[1] = system: NGF-induced bladder hyper-reflexia; conditions: rats; systemic administration; cited from earlier work
[2] = system: LPS-induced cystitis; assay: Local bladder inflammation model, Example 2 (instillation), intravital microscopy of the bladder; type: in vivo, female BALB/c mice; conditions: LPS 150 μg/ml instilled 30 min, then instillation, BCP 100 mg/kg; for leukocyte rolling in bladder venules: FIG. 10; for leukocyte adhesion in bladder venules: FIGS. 9 and 12; for capillary perfusion quantified through functional capillary density (FCD): FIGS. 11 and 13
[3] = system: LPS-induced cystitis; assay: Local bladder inflammation model, Example 4 (oral Beta-C alone or with MSM), intravital microscopy; type: in vivo, female BALB/c mice; conditions: for leukocyte adhesion in bladder venules: FIGS. 14, 16; for capillary perfusion quantified through functional capillary density (FCD): FIGS. 15, 17
Experimental: Laparotomy was then performed to gain access to the bladder and to have a visual confirmation of bladder instillation success. […] This was then followed by an insertion of a P10 catheter into the urethra. […] LPS solution (150 μg/ml) was slowly instilled and held in the bladder for 30 minutes. The animal was then rotated on the heating pad at a halfway point to ensure that all sides of bladder were equally exposed to LPS.
Animals and local bladder inflammation model were as described hereinabove in Example 2. The groups were as follows:
In the oral gavage groups, the mice were treated with 100 mg/kg beta-C or 100 mg/kg beta-C in 100 mg/kg methylsulfonylmethane (MSM) by gavage. In groups other than the Healthy Animal Control administered oral beta-C, the administration was 60 minutes prior to LPS exposure. LPS (local) was provided as detailed hereinabove in Example 2. Intravesical MSM was provided similar to as detailed hereinabove in Example 1 for DMSO. Leukocyte adherence, leukocyte rolling and functional capillary density were measured using the techniques as described hereinabove in Example 2. Results were assessed using the statistical methods described hereinabove in Example 2.

[4] = system: LPS-induced cystitis; assay: Pain assessment scoring (behavioural), Example 5; type: in vivo, female BALB/c mice
Experimental: (§1) Studies were carried out to investigate the anesthetic effect of oral administration of Beta-C. Animals and local bladder inflammation model were as described hereinabove in Example 2. The groups were as follows:
(§2) In the oral gavage groups, the mice were treated with 100 mg/kg beta-C by gavage. In the LPS group administered oral beta-C, the administration was 60 minutes prior to LPS exposure. LPS (local) was provided as detailed hereinabove in Example 2.
Healthy animals were scored behaviourally to set an individual baseline for each specimen. Animals were then anesthetized with isoflurane and given LPS instillation to induce cystitis-like conditions in bladder. After the induction, animals were then woken up and allowed to normally explore/feed themselves in their cage under observation. Changes in behaviour and appearance (i.e. breathing rate, posture, motor activity, eye opening) were then scored again. Each behavioural parameter received a possible maximum score of 10, totaling to a possible maximum of 40. The minimum score possible is a 0, which implies that the parameter is unaffected as a pre-existing condition. Breathing Rate—each decrease in cycle warrants an increase in score. Opening of the eyes—0 complete opening, 5 half opening, 10 fully closed, and 2 and 7 are intermediate positions. Posture—no change is 0, full rounded back OR limp is 10. Intermediate postures gain intermediate scores. Motor activity—activity (exploring, moving, grooming) within 20 seconds. e.g. no movement for 10 seconds (=50%)=5 points; no movement for 2 seconds (=10%)=1 point. The scoring system is based on that reported by Eschalier et al.^37 but has the additional parameter of motor activity.

[5] = system: LPS-induced cystitis; assay: Electronic von Frey aesthesiometry, Example 5; type: in vivo, female BALB/c mice; conditions: oral BCP 100 mg/kg 60 minutes prior to LPS; T0 vs T1; FIG. 26
Experimental: as §1, §2
This was a quantified pain assessment that measures the amount of force applied in grams, before an animal reacts (e.g. withdraws) to the noxious stimulus. This quantification allows for accurate detection of pain relief effectiveness of a treatment. Healthy animals were scored before any treatments or cystitis induction to set an individual baseline for each specimen. The animals were also scored after the cystitis was induced and the treatment effect could be measured. Each individual animal was compared to itself before the induction, as well as a summarized group comparison was performed.

[6] = system: inflammatory and neuropathic pain; conditions: mouse models of inflammatory and neuropathic pain; cited from earlier work
[7] = compared with procaine; cited from earlier work
[8] = system: LPS-induced cystitis; assay: Systemic (endotoxemia-induced) bladder inflammation model, intravital microscopy of the bladder; conditions: LPS 10 mg/kg i.p.
[9] = system: severe IC; conditions: patients with severe IC; intravesical DMSO; cited from earlier work
[10] = system: LPS-induced cystitis; assay: Local (endotoxin-induced) bladder inflammation model, Example 1, intravital microscopy of the bladder; conditions: LPS 100 μg/ml instilled 30 min, then drug instillation (DMSO 40%)
[11] = system: interstitial cystitis; conditions: clinical case studies for IC; cited from earlier work
[12] = system: interstitial cystitis; conditions: patients with IC; oral therapy; cited from earlier work
[13] = healthy animals (no LPS) administered oral Beta-C 100 mg/kg

CCCCC/C=C\C/C=C\C/C=C\C/C=C\CCCC(=O)NCCO [AEA, N-arachidonoylethanolamine]
NGF-induced bladder hyper-reflexia and reduction of micturition threshold [1]: attenuated

C=C1CC/C=C(\C)CC[C@@H]2[C@@H]1CC2(C)C [Beta-C, beta-caryophyllene]
leukocyte rolling in bladder venules [2]: restored the level of leukocyte levels to that of control animals | leukocyte adhesion in bladder venules [2]: significantly decreased the number of adhering leukocytes back to the level of healthy control animals | leukocyte adhesion in bladder venules ([2]; listed as BCP): decrease in leukocyte adherence comparable to groups instilled with various levels of DMSO | capillary perfusion quantified through functional capillary density (FCD) [2]: highest overall values for FCD | capillary perfusion quantified through functional capillary density (FCD) ([2]; listed as BCP): restored perfusion to levels observed in healthy control animals; also recorded: significant improvement in FCD | leukocyte adhesion in bladder venules ([3]; LPS-induced cystitis, oral gavage 100 mg/kg Beta-C (with or without 100 mg/kg MSM) 60 minutes prior to LPS): significant decrease in the number of adherent leukocytes | capillary perfusion quantified through functional capillary density (FCD) ([3]; LPS-induced cystitis, oral gavage 100 mg/kg Beta-C (with or without 100 mg/kg MSM) 60 minutes prior to LPS, listed as BCP): no significant differences were observed in the treatment group; also recorded: did not significantly improve FCD | leukocyte adhesion in bladder venules [3, 13]: did not produce any significant changes in leukocyte adherence | capillary perfusion quantified through functional capillary density (FCD) [3, 13]: significant improvement in functional capillary density | capillary perfusion quantified through functional capillary density (FCD) ([3]; healthy animals (no LPS) administered oral Beta-C 100 mg/kg, listed as BCP): significant improvement in FCD | behavioural results for eye opening ([4]; oral BCP 100 mg/kg 60 minutes prior to LPS, vs untreated LPS, FIG. 22): significant improvement | behavioural results for motor activity ([4]; oral BCP 100 mg/kg 60 minutes prior to LPS, vs untreated LPS, FIG. 23): Significant improvements | behavioural results for posture ([4]; oral BCP 100 mg/kg 60 minutes prior to LPS, vs untreated LPS, FIG. 24): Significant improvements | total composite score of behavioural results (behavioural pain score) ([4]; oral BCP 100 mg/kg 60 minutes prior to LPS, vs untreated LPS, FIG. 25): significant reduction in behavioural pain score | behavioural results for breathing rate ([4]; oral Beta-C 100 mg/kg 60 minutes prior to LPS, T1 vs untreated LPS, FIG. 21): significant reduction in breathing rate | amount of force applied via electronic von Frey aesthesiometer before a response (withdrawal threshold) [5]: significant improvement in withdrawal threshold | analgesic and anti-inflammatory effects [6]: analgesic and anti-inflammatory effects | local anesthetic actions [7]: dose-dependent local anesthetic actions comparable to procaine | leukocyte adhesion in bladder venules ([8]; 100 mg/kg Beta-C injected 15 min after LPS, IVM two hours after treatment, vs LPS, FIG. 1): significantly decreased the number of adhering leukocytes | capillary perfusion quantified through functional capillary density (FCD) ([8]; 100 mg/kg Beta-C injected, FIG. 3): restored perfusion to levels observed in healthy control animals | leukocyte rolling in bladder venules ([8]; 100 mg/kg Beta-C injected, vs endotoxemia group, FIG. 2): did not significantly alter the number of rolling leukocytes

C[S+](C)[O-] [DMSO, Dimethyl sulfoxide]
leukocyte rolling in bladder venules [2]: did not improve leukocyte rolling | leukocyte adhesion in bladder venules [2]: retained a high level of activated leukocytes | capillary perfusion quantified through functional capillary density (FCD) [2]: did improve perfusion, it did not return perfusion to the levels observed in healthy control animals | treatment failure rate [9]: high failure rate | leukocyte adhesion in bladder venules ([10]; FIG. 6): did not significantly decrease leukocyte adherence | leukocyte rolling in bladder venules ([10]; FIG. 7): did not show any significant difference when compared to the endotoxemia group | capillary perfusion quantified through functional capillary density (FCD) ([10]; FIG. 8): did improve perfusion, it did not return perfusion to the levels observed in healthy control animals

CS(C)(=O)=O [Methylsulfonylmethane]
effective treatment, number of patients suffering from IC [11]: 4 out of 6

CCCCCCCCCCCCCCCC(=O)NCCO [PEA, N-palmitoylethanolamide]
NGF-induced bladder hyper-reflexia and reduction of micturition threshold [1]: attenuated

pentosan polysulfate [PPS]
effect of PPS treatment (proportion of patients) [12]: limited to only a quarter of patients
